In patent US5631226A, “Treatment to reduce edema” (The Regents of the University of California, priority 1995, dated 1997):
No end group written: not given here.

Key:
blood pressure = details: prior art report; cited from earlier work
ACTH secretion = details: prior art report; cited from earlier work
[1] = tested on: vascular leakage after musculature injury (celiotomy); assay: Vascular leakage after celiotomy (4 cm midline incision through abdominal muscle wall); type: in vivo, rat; details: for Lesions Size: tissues 0.5 hour after surgery
Description: Experiments were conducted on male Sprague-Dawley rats 243±15 gm (S. D., Simonsen Labs., Gilroy, Calif.) anesthetized with sodium pentobarbital, 60 mg/kg i.p. Monastral blue, 60 mg/kg i.v., was injected 0.2 ml/100 g, 3 minutes before a 4 cm midline incision through the abdominal muscle wall (celiotomy). Saline or CRF was administered to randomized pairs with N=8 rats per group. The size of the lesion, measured as area in mm^2, and its light intensity, were quantified using the JAVA image-analysis software program. The light intensity, given in arbitrary units, was internally calibrated using Monastral blue solutions (1-30 mg/ml) placed on white filter paper. Values are mean±S.E.M. FIG. 2 illustrates the respective amount of vascular permeability for one pair of rats (control and treated). Tables III and IV set out data from these experiments.
CRF: inhected at various doses subcutaneously 30 minutes before a 4 cm
middle incision, tissues taken 0.5 hour after surgery.
CRF: 30 μg/kg s.c. injected 2 hour before a 4 cm midline incision,
tissues taken 0.5 hour after surgery

[2] = tested on: brain edema after freeze injury to cerebral cortex; assay: Freeze injury of cerebral cortex, water and sodium content as index of brain edema; type: in vivo, rat; details: CRF 30 μg/kg s.c. 2x, tissues 3 hr after injury, ±S.E.M., N=5
Description: In a second set of experiments, the brain surface, namely the cerebral cortex, was injured by freezing and the water and sodium content were measured in the cerebral cortex and in the basal ganglia, a part of the brain away from the freeze zone. The water and sodium content of the brain tissue served as an index of brain edema. After freeze injury, the water and sodium content of the cerebral cortex were evaluated relative to non-frozen tissues. CRF administered in two separate doses of 30 μg/kg subcutaneously, one dose 15 minutes before the injury and the second dose 90 minutes after the first dose, inhibited the two indices of brain edema.
Male SpragueDawley rats, 300-325 g, anesthetized with
ketamineacepromazine, were injected saline or CRF (30 μg/kg s.c. 2x)
and injury to cerebral cortex was produced by applying a cold probe to th
skull for 1 min. Brain tissues were obtained 3 hr later and analyzed for
water and sodium content.

[3] = tested on: vascular permeability produced by cold injury in brain; assay: Cold (freeze) injury to brain, vascular leakage by Monastral blue staining; type: in vivo, rat
Excerpt: An in vivo model of injury to study brain edema has been developed as a reproducible edema model, which has the features of immediate cortical damage followed by the subsequent development of brain edema. This model is described by Chan et al., Brain Research, 277, pp. 329-337 (1983). The model uses rats which are anesthetized. A 2.5 cm incision is made over the sagittal suture and the bone of the right hemisphere exposed. A 60 mm^2 plate attached to a brass cup filled with dry ice-acetone mixture, with a temperature of -50° C., is applied to the rat skull for one minute. The animals are sacrificed at various intervals after the onset of cold-injury. A dye is administered intravenously before the freezing. Cortical slices are then obtained of the brain.
Sixteen male rats were randomly divided into eight pairs and one rat in each pair received either saline or CRF (subcutaneously twice at 30 μg/kg, 30 min and 10 min before cold injury). The animals were anesthetized with sodium pentobarbital, 60 mg/kg intraperitoneally, and injected with Monastral blue, 60 mg/kg intravenously. A cold probe was applied onto the skull for four minutes and the brains taken out one hour after cold injury. The staining of brain tissues with Monastral blue, a colloidal pigment that gets trapped between the albuminal surface of the endothelial cell and the basement membrane, was proportional to the degree of vascular leakage. The results from the first pair are shown as FIG. 1.
The size of the lesion, measured as area in mm^2, and the degree of staining intensity, were quantified using an image-analysis software program called JAVA (Jandel Corporation, San Rafael, Calif.). The stain intensity, given in arbitrary units, was internally calibrated using Monastral blue solutions (1-30 mg/ml) placed on white filter paper. Values are mean ±S.E.M.

[4] = tested on: edema-producing properties of inflammatory mediators in rat pawskin; details: mediators injected into the rat pawskin; previously shown; cited from earlier work
Pseudomonas = assay: Neutropenic rat model of sepsis (Pseudomonas infection), survival; type: in vivo; details: CRF 100 μg/kg i.v. twice a day for four days after onset of fever; day 11; 9/15; controls 100% mortality at 8 days
Excerpt: The neutropenic rat model of sepsis, designed to mimic the systemic inflammatory response syndrome in humans, is described by Collins et al. from The Journal of Infectious Diseases, 159:6 (June 1989) and The Journal of Clinical Investigation, 88:885 (September 1991). […] The animals die from overwhelming infection within 7 to 9 days of infection and examination of the tissues with histological and pathological techniques reveal the characteristic organic manifestations of the systemic inflammatory response syndrome, namely, organ edema and tissue necrosis.
In a typical experiment, 10 rats serving as controls received saline and 15 rats received CRF at a dose of 100 μg/kg intravenously, given twice a day for four days after the onset of fever. At the end of 8 days, all of the animals in the control group were dead (100% mortality). By contrast, 60% (9/15) of the CRF group were still alive at day 11 when the experiment was concluded. The difference between the saline and CRF treated groups were statistically significant (P<0.002).

[5] = tested on: vascular leakage produced by PAF-acether; assay: Vascular leakage produced by PAF-acether injected subcutaneously into the abdomen; type: in vivo, rat; details: CRF 30 μg/kg s.c. 30 minutes before PAF-acether
Description: CRF: 30 μg/kg s.c. injected 30 minutes before subcutaneous injection o
PAFacether (1 μg/0.1 ml/rat) into the abdomen; muscle removed 0.5 hour

[6] = CRF 15 μg/kg s.c. 30 minutes before incision
[7] = CRF 30 μg/kg s.c. 30 minutes before incision
[8] = CRF 60 μg/kg s.c. 30 minutes before incision

CC[C@H](C)[C@H](NC(=O)[C@@H](NC(=O)[C@H](CC(=O)O)NC(=O)[C@H](CC(C)C)NC(=O)[C@H](CC(C)C)NC(=O)[C@H](CC(C)C)NC(=O)[C@H](CCCNC(=N)N)NC(=O)[C@H](CC(N)=O)NC(=O)[C@H](CC(N)=O)NC(=O)[C@H](C)NC(=O)[C@H](C)NC(=O)[C@H](CCC(N)=O)NC(=O)[C@H](CCC(N)=O)NC(=O)[C@H](CCCCN)NC(=O)[C@H](CCC(=O)O)NC(=O)[C@H](CCCCN)NC(=O)[C@H](CCC(=O)O)NC(=O)[C@H](CCC(N)=O)NC(=O)[C@H](CCCCN)NC(=O)[C@H](CCC(=O)O)NC(=O)[C@@H](NC(=O)[C@H](CCC(=O)O)NC(=O)[C@@H](NC(=O)[C@H](CCSC)NC(=O)[C@H](CCCCN)NC(=O)[C@H](CCCNC(=N)N)NC(=O)[C@H](CC(C)C)NC(=O)[C@H](CC(C)C)NC(=O)[C@H](CCC(=O)O)NC(=O)[C@H](CC(C)C)NC(=O)[C@H](CO)NC(=O)[C@H](CC(C)C)NC(=O)[C@H](CC(=O)O)NC(=O)[C@@H](NC(=O)[C@H](CO)NC(=O)[C@@H](NC(=O)[C@@H]1CCCN1C(=O)[C@@H]1CCCN1C(=O)CNC(=O)[C@@H]1CCC(=O)N1)[C@@H](C)CC)[C@@H](C)CC)[C@@H](C)CC)[C@@H](C)CC)[C@@H](C)O)C(N)=O [Sauvagine]
effect on blood pressure (blood pressure): lowering blood pressure
effect on ACTH secretion (ACTH secretion): stimulating the secretion of ACTH and β-endorphin

CRF: 41 amino acid neuropeptide present in brain and peripheral nerve endings; stimulates ACTH release from pituitary cells (SEEPPISLDLTFHLLREVLEMARAEQLAQQAHSNRKLMEII; not fully specified; ends and bridges not checked; UniProt P06850 154-194, looked up)
lesion size relative to saline-treated group [1, 6]: 63%
Lesions Size [1, 6]: 1031 ± 44
lesion size relative to saline-treated group [1, 7]: 42%
Lesions Size [1, 7]: 676 ± 47
lesion size relative to saline-treated group ([1]; CRF 30 μg/kg s.c. 2 hour before incision): 59%
lesion size relative to saline-treated group [1, 8]: 29%
Lesions Size [1, 8]: 468 ± 19
SODIUM mEq/kg dry ([2]; basal ganglia (non-injured)): 215 ± 9 mEq/kg dry
WATER CONTENT % ([2]; basal ganglia (non-injured)): 76 ± 1%
SODIUM mEq/kg dry ([2]; cerebral cortex (injured)): 271 ± 8 mEq/kg dry
WATER CONTENT % ([2]; cerebral cortex (injured)): 77 ± 4%
lesion size of CRF-treated group relative to saline-treated group ([3]; CRF 30 μg/kg s.c. twice before cold injury): 44%
Intensity (Monastral blue stain intensity) ([3]; CRF 30 μg/kg s.c. twice, 30 min and 10 min before cold injury, brains taken 1 hour after injury, mean ± S.E.M.): 2.0 ± 0.05 arbitrary units
blinded observer correctly assigns brains to saline or CRF group (more vs less damaged) ([3]; eight pairs of rats): 8 out of 8
effect on edema-producing properties of inflammatory mediators [4]: antagonize the edema-producing properties
animals still alive (survival) (Pseudomonas): 60%
muscle lesion size relative to saline-treated control group [5]: 44%
